Data from patent US20240246977A1, “DEGRADATION OF BRUTON'S TYROSINE KINASE (BTK) BY CONJUGATION OF BTK INHIBITORS WITH E3 LIGASE LIGAND AND METHOD OF USE” (BeiGene Switzerland GmbH, priority 2021, published 2024).

Experiments:
HEK-293 cells = experiment: HEK-293 cytotoxicity detection (CellTiter-Glo); format: cell-based; conditions: Homo sapiens, 72 h, 72 h incubation, CellTiter-Glo luminescence, read-out: HEK293
Method in brief: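 HEK-293 cells exposed 72 h to 8 compounds doses (4-fold dilutions, top stock 5 mM at 500×) in 0.2% DMSO. Viability by CellTiter-Glo luminescence; inhibition normalised to DMSO high control and low control, IC50 from four-parameter curve fit.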

BTK = BTK (Homo sapiens, UniProt Q06187); experiment: BTK cell degradation in TMD-8 cells, HTRF assay; format: cell-based; set-up: endogenous in cells; host or cells: TMD-8 cells; conditions: 6 h treatment, IC50 (DC50) of BTK degradation
Chain of BTK (Q06187 whole entry): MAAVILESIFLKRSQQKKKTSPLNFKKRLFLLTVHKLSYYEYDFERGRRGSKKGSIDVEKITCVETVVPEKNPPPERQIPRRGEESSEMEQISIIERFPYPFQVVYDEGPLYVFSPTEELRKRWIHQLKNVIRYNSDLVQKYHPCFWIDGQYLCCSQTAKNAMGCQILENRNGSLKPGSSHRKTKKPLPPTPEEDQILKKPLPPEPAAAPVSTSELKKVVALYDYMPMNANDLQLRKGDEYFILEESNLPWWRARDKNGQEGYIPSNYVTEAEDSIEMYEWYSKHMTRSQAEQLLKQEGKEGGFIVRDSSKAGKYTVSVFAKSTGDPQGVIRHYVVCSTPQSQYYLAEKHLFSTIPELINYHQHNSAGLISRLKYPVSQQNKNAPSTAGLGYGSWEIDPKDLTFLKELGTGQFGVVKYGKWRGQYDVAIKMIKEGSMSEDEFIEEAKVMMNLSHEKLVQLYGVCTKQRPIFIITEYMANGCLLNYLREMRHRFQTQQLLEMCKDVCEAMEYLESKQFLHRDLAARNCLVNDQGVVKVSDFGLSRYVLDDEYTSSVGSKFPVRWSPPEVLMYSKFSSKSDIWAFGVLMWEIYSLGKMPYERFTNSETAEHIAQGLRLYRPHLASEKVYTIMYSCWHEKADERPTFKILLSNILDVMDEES
Method in brief: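 TMD-8 cells treated 6 h with 8-dose series (6-fold dilutions, 0.2% DMSO final), then lysed and BTK quantified by HTRF (337/665/620 nm) after overnight antibody incubation at room temperature. Degradation normalized to DMSO high and low controls; DC50 and Dmax from four-parameter fit.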

## Cc1cccc(NC(=O)c2ncc(-c3nn4c(c3C(N)=O)Nc3ccc(N5CCN(C6CC(c7ccc([C@H]8CCC(=O)NC8=O)cc7)C6)CC5)cc3CC4)cc2C)n1 (stereo partly drawn) [Example B34, (R)-7-(4-(3-(4-(2,6-dioxopiperidin-3-yl)phenyl)cyclobutyl)piperazin-1-yl)-2-(5-methyl-6-((6-methylpyridin-2-yl)carbamoyl)pyridin-3-yl)-9,10-dihydro-4H-benzo[d]pyrazolo[1,5-a][1,3]diazepine-3-carboxamide]
HEK-293 cells
  IC50: 0.168 µM
BTK
  DC50: 57.8 nM

## Cc1cccc(NC(=O)c2cnc(-c3nn4c(c3C(N)=O)Nc3ccc(N5CCN(CC6CCN(c7ccc(N8CCC(=O)NC8=O)cc7)CC6)CC5)cc3CC4)cc2C)n1 [Example B36, 7-(4-((1-(4-(2,4-dioxotetrahydropyrimidin-1(2H)-yl)phenyl)piperidin-4-yl)methyl)piperazin-1-yl)-2-(4-methyl-5-((6-methylpyridin-2-yl)carbamoyl)pyridin-2-yl)-9,10-dihydro-4H-benzo[d]pyrazolo[1,5-a][1,3]diazepine-3-carboxamide]
HEK-293 cells
  IC50: > 10 µM
BTK
  DC50: 47.2 nM

## Cc1cccc(NC(=O)c2cnc(-c3nn4c(c3C(N)=O)Nc3ccc(N5CCN(CCc6cc(F)c(C7CCC(=O)NC7=O)c(F)c6)CC5)cc3CC4)cc2C)n1 (centres unmarked) [Example B37, 7-(4-(4-(2,6-dioxopiperidin-3-yl)-3,5-difluorophenethyl)piperazin-1-yl)-2-(4-methyl-5-((6-methylpyridin-2-yl)carbamoyl)pyridin-2-yl)-9,10-dihydro-4H-benzo[d]pyrazolo[1,5-a][1,3]diazepine-3-carboxamide]
HEK-293 cells
  IC50: > 10 µM
BTK
  DC50: 15.2 nM

## Cc1cccc(NC(=O)c2ccc(-c3nn4c(c3C(N)=O)Nc3ccc(N5CCN(CC6CCN(c7ccc(N8CCC(=O)NC8=O)cc7)CC6)CC5)cc3CC4)nc2C)n1 [Example B38, 7-(4-((1-(4-(2,4-dioxotetrahydropyrimidin-1(2H)-yl)phenyl)piperidin-4-yl)methyl)piperazin-1-yl)-2-(6-methyl-5-((6-methylpyridin-2-yl)carbamoyl)pyridin-2-yl)-9,10-dihydro-4H-benzo[d]pyrazolo[1,5-a][1,3]diazepine-3-carboxamide]
HEK-293 cells
  IC50: > 10 µM
BTK
  DC50: 4.89 nM

## Cc1cccc(NC(=O)c2ccc(-c3nn4c(c3C(N)=O)Nc3ccc(N5CCN(CCc6cc(F)c(C7CCC(=O)NC7=O)c(F)c6)CC5)cc3CC4)nc2C)n1 (centres unmarked) [Example B39, 7-(4-(4-(2,6-dioxopiperidin-3-yl)-3,5-difluorophenethyl)piperazin-1-yl)-2-(6-methyl-5-((6-methylpyridin-2-yl)carbamoyl)pyridin-2-yl)-9,10-dihydro-4H-benzo[d]pyrazolo[1,5-a][1,3]diazepine-3-carboxamide]
HEK-293 cells
  IC50: > 10 µM
BTK
  DC50: 5.66 nM

## Cc1cncc(NC(=O)c2ccc(-c3nn4c(c3C(N)=O)Nc3ccc(N5CCN(CC6CCN(c7ccc(N8CCC(=O)NC8=O)cc7)CC6)CC5)cc3CC4)c(F)c2C)n1 [Example B40, 7-(4-((1-(4-(2,4-dioxotetrahydropyrimidin-1(2H)-yl)phenyl)piperidin-4-yl)methyl)piperazin-1-yl)-2-(2-fluoro-3-methyl-4-((6-methylpyrazin-2-yl)carbamoyl)phenyl)-9,10-dihydro-4H-benzo[d]pyrazolo[1,5-a][1,3]diazepine-3-carboxamide]
HEK-293 cells
  IC50: > 10 µM
BTK
  DC50: 5.69 nM

## CCc1cccc(NC(=O)c2ccc(-c3nn4c(c3C(N)=O)Nc3ccc(N5CCN(CC6CCN(c7ccc(N8CCC(=O)NC8=O)cc7)CC6)CC5)cc3CC4)c(F)c2C)n1 [Example B41, 7-(4-((1-(4-(2,4-dioxotetrahydropyrimidin-1(2H)-yl)phenyl)piperidin-4-yl)methyl)piperazin-1-yl)-2-(4-((6-ethylpyridin-2-yl)carbamoyl)-2-fluoro-3-methylphenyl)-9,10-dihydro-4H-benzo[d]pyrazolo[1,5-a][1,3]diazepine-3-carboxamide]
HEK-293 cells
  IC50: > 10 µM
BTK
  DC50: 9.26 nM

## Cc1cc(Cl)cc(NC(=O)c2ccc(-c3nn4c(c3C(N)=O)Nc3ccc(N5CCN(CC6CCN(c7ccc(N8CCC(=O)NC8=O)cc7)CC6)CC5)cc3CC4)c(F)c2C)n1 [Example B42, 2-(4-((4-chloro-6-methylpyridin-2-yl)carbamoyl)-2-fluoro-3-methylphenyl)-7-(4-((1-(4-(2,4-dioxotetrahydropyrimidin-1(2H)-yl)phenyl)piperidin-4-yl)methyl)piperazin-1-yl)-9,10-dihydro-4H-benzo[d]pyrazolo[1,5-a][1,3]diazepine-3-carboxamide]
HEK-293 cells
  IC50: > 10 µM
BTK
  DC50: 3.67 nM

## Cc1ccnc(NC(=O)c2ccc(-c3nn4c(c3C(N)=O)Nc3ccc(N5CCN(CC6CCN(c7ccc(N8CCC(=O)NC8=O)cc7)CC6)CC5)cc3CC4)c(F)c2C)n1 [Example B43, 7-(4-((1-(4-(2,4-dioxotetrahydropyrimidin-1(2H)-yl)phenyl)piperidin-4-yl)methyl)piperazin-1-yl)-2-(2-fluoro-3-methyl-4-((4-methylpyrimidin-2-yl)carbamoyl)phenyl)-9,10-dihydro-4H-benzo[d]pyrazolo[1,5-a][1,3]diazepine-3-carboxamide]
HEK-293 cells
  IC50: > 10 µM
BTK
  DC50: 0.543 nM

## Cc1c(C(=O)Nc2ccc3[nH]ccc3n2)ccc(-c2nn3c(c2C(N)=O)Nc2ccc(N4CCN(CC5CCN(c6ccc(N7CCC(=O)NC7=O)cc6)CC5)CC4)cc2CC3)c1F [Example B45, 2-(4-((1H-pyrrolo[3,2-b]pyridin-5-yl)carbamoyl)-2-fluoro-3-methylphenyl)-7-(4-((1-(4-(2,4-dioxotetrahydropyrimidin-1(2H)-yl)phenyl)piperidin-4-yl)methyl)piperazin-1-yl)-9,10-dihydro-4H-benzo[d]pyrazolo[1,5-a][1,3]diazepine-3-carboxamide]
HEK-293 cells
  IC50: > 10 µM
BTK
  DC50: 1.69 nM

## Cc1c(-c2nc(-c3ccccn3)no2)ccc(-c2nn3c(c2C(N)=O)Nc2ccc(N4CCN(CC5CCN(c6ccc(N7CCC(=O)NC7=O)cc6)CC5)CC4)cc2CC3)c1F [Example B46, 7-(4-((1-(4-(2,4-dioxotetrahydropyrimidin-1(2H)-yl)phenyl)piperidin-4-yl)methyl)piperazin-1-yl)-2-(2-fluoro-3-methyl-4-(3-(pyridin-2-yl)-1,2,4-oxadiazol-5-yl)phenyl)-9,10-dihydro-4H-benzo[d]pyrazolo[1,5-a][1,3]diazepine-3-carboxamide]
HEK-293 cells
  IC50: > 10 µM
BTK
  DC50: 15 nM

## Cc1c(C(=O)Nc2cnc3ccccc3n2)ccc(-c2nn3c(c2C(N)=O)Nc2ccc(N4CCN(CC5CCN(c6ccc(N7CCC(=O)NC7=O)cc6)CC5)CC4)cc2CC3)c1F [Example B47, 7-(4-((1-(4-(2,4-dioxotetrahydropyrimidin-1(2H)-yl)phenyl)piperidin-4-yl)methyl)piperazin-1-yl)-2-(2-fluoro-3-methyl-4-(quinoxalin-2-ylcarbamoyl)phenyl)-9,10-dihydro-4H-benzo[d]pyrazolo[1,5-a][1,3]diazepine-3-carboxamide]
HEK-293 cells
  IC50: > 10 µM
BTK
  DC50: 1.9 nM

## Cc1c(C(=O)Nc2cccc(-c3ccccc3)n2)ccc(-c2nn3c(c2C(N)=O)Nc2ccc(N4CCN(CC5CCN(c6ccc(N7CCC(=O)NC7=O)cc6)CC5)CC4)cc2CC3)c1F [Example B48, 7-(4-((1-(4-(2,4-dioxotetrahydropyrimidin-1(2H)-yl)phenyl)piperidin-4-yl)methyl)piperazin-1-yl)-2-(2-fluoro-3-methyl-4-((6-phenylpyridin-2-yl)carbamoyl)phenyl)-9,10-dihydro-4H-benzo[d]pyrazolo[1,5-a][1,3]diazepine-3-carboxamide]
HEK-293 cells
  IC50: > 10 µM
BTK
  DC50: 4.2 nM

## Cc1c(C(=O)Nc2cc(N3CCCC3)ccn2)ccc(-c2nn3c(c2C(N)=O)Nc2ccc(N4CCN(CC5CCN(c6ccc(N7CCC(=O)NC7=O)cc6)CC5)CC4)cc2CC3)c1F [Example B49, 7-(4-((1-(4-(2,4-dioxotetrahydropyrimidin-1(2H)-yl)phenyl)piperidin-4-yl)methyl)piperazin-1-yl)-2-(2-fluoro-3-methyl-4-((4-(pyrrolidin-1-yl)pyridin-2-yl)carbamoyl)phenyl)-9,10-dihydro-4H-benzo[d]pyrazolo[1,5-a][1,3]diazepine-3-carboxamide]
HEK-293 cells
  IC50: > 10 µM
BTK
  DC50: 13.5 nM

## COc1ccnc(NC(=O)c2ccc(-c3nn4c(c3C(N)=O)Nc3ccc(N5CCN(CC6CCN(c7ccc(N8CCC(=O)NC8=O)cc7)CC6)CC5)cc3CC4)c(F)c2C)c1 [Example B50, 7-(4-((1-(4-(2,4-dioxotetrahydropyrimidin-1(2H)-yl)phenyl)piperidin-4-yl)methyl)piperazin-1-yl)-2-(2-fluoro-4-((4-methoxypyridin-2-yl)carbamoyl)-3-methylphenyl)-9,10-dihydro-4H-benzo[d]pyrazolo[1,5-a][1,3]diazepine-3-carboxamide]
HEK-293 cells
  IC50: > 10 µM
BTK
  DC50: 2.16 nM

## CCOc1ccnc(NC(=O)c2ccc(-c3nn4c(c3C(N)=O)Nc3ccc(N5CCN(CC6CCN(c7ccc(N8CCC(=O)NC8=O)cc7)CC6)CC5)cc3CC4)c(F)c2C)c1 [Example B51, 7-(4-((1-(4-(2,4-dioxotetrahydropyrimidin-1(2H)-yl)phenyl)piperidin-4-yl)methyl)piperazin-1-yl)-2-(4-((4-ethoxypyridin-2-yl)carbamoyl)-2-fluoro-3-methylphenyl)-9,10-dihydro-4H-benzo[d]pyrazolo[1,5-a][1,3]diazepine-3-carboxamide]
HEK-293 cells
  IC50: 0.29 µM
BTK
  DC50: 7.39 nM
